Laboratory results taken from the NIST ThermoML archive (doi:10.1016/j.fluid.2017.10.034).

Assay: xn = mol fraction of the nth substance listed
Details: Liquid, Vibrating tube method

[Cl-].[Na+] [sodium chloride] + O
mass density [kg/m3]
Details	x1 = 0.0099	x1 = 0.0196	x1 = 0.0291	x1 = 0.0385	x1 = 0.0476	x1 = 0.0566	x1 = 0.0654
288.15 K	1022.2	1044.7	1065.8	1086.7	1107.4	1127.2	1147.1
293.15 K	1021	1043.2	1064.1	1084.8	1105.4	1125	1144.8
298.15 K	–	1041.6	1062.3	1082.8	1103.3	1122.7	1142.4
308.15 K	1016.2	1037.8	1058.2	1078.5	1098.7	1118	1137.4
318.15 K	1012.1	1033.5	1053.6	1073.7	1093.8	1112.9	1132.2

[Cl-].[Cs+] [cesium chloride] + CO
mass density [kg/m3]
Details	288.15 K	293.15 K	298.15 K	308.15 K	318.15 K
x1 = 0.0012	800.8	796.1	791.3	781.8	772.3
x1 = 0.0025	805.5	800.8	796	786.5	776.9
x1 = 0.0037	809.9	805.2	800.5	791	781.4
x1 = 0.0049	814.5	809.8	805.1	795.5	785.9

[Cl-].[Cs+] [cesium chloride] + O
mass density [kg/m3]
Details	x1 = 0.0099	x1 = 0.0196	x1 = 0.0292	x1 = 0.0385	x1 = 0.0536	x1 = 0.069
288.15 K	1069.7	1137.3	1203.3	1266.2	1367	1466.9
293.15 K	1068.4	1135.8	1201.6	1264.2	1364.6	1464.1
298.15 K	1067	1134.1	1199.6	1262	1362.1	1461.3
308.15 K	1063.5	1130.1	1195.2	1257.3	1356.7	1455.3
318.15 K	1059.2	1125.5	1190.2	1252	1350.9	1448.6

[Cl-].[Na+] [sodium chloride] + CO
mass density [kg/m3]
Details	x1 = 0.001	x1 = 0.002	x1 = 0.003	x1 = 0.004	x1 = 0.005	x1 = 0.006	x1 = 0.007
288.15 K	797.4	798.9	800.1	801.4	802.9	804.1	805.7
293.15 K	792.7	794.3	795.5	796.8	798.3	799.5	801.1
298.15 K	788	789.6	790.8	792.1	793.7	794.9	796.4
308.15 K	778.6	780.2	781.4	782.7	784.3	785.5	787.1
318.15 K	769	770.7	771.9	773.3	774.8	776.1	777.7
